# Source: patent publication US10711011B2, “Substituted oxazolidines as anti-bacterial agents” (BUGWORKS RESEARCH, INC., priority 2016, dated 2020)
# How the values were obtained:
# E. coli DNA gyrase = E. coli DNA gyrase (Escherichia coli, UniProt P0AES4+P0AES6); experiment: biochemical; conditions: supercoiling assay
# E. faecalis ATCC 29212 = experiment: Minimum Inhibitory Concentration (MIC) in LB media; assay type: cell-based, Enterococcus faecalis; conditions: for MIC: Enterococcus faecalis, ATCC29212
# Text: (§1) The compounds of Formula I are of interest due to their potent antibacterial effects. The ability of the invention compounds disclosed herein to achieve an antibacterial effect may be evaluated with regard to their ability to inhibit the growth of bacterial species like Escherichia coli ATCC 25922, Staphylococcus aureus ATCC 29213, Klebsiella pneumoniae ATCC 13883, Acinetobacter baumannii ATCC 19606, Pseudomonas aurigenosa ATCC 27853, Enterococcus faecalis ATCC 29212 and Enterococcus faecalis ATCC 29212 using an assay based on the following Minimum Inhibitory Concentration (MIC) protocol:
# (§2) The test bacteria are grown in Luria Bertani Broth (HIMEDIA M1245), 25 grams of the powder is dissolved in 1000 ml distilled water and sterilized by autoclaving at 15 lbs pressure (121° C.) for 20 minutes. The medium sterility is checked by incubating at 37° C. for a period of 48 h.
# (§3) Bacterial cultures that are stored as glycerol stocks at −80° C. are sub cultured on LB agar plates to obtain isolated colonies. A single colony of each strain is cultured in LB broth. The cultures are incubated at 37° C., 200 rpm till they reach an optical density (OD at 600 nm) of 0.8 to 1. […] Test compounds are dissolved in dimethyl sulfoxide (DMSO) to a stock concentration of 4 mg/ml. A twofold dilution series of this DMSO stock is prepared in a 96 well V bottom microtitre plate from rows A to H. A 3 μL volume of these dilutions are transferred to a 96-well flat bottom microtitre assay plate. Controls to monitor the effects of DMSO and media sterility are included. Each well is inoculated with 150 μL of the above diluted culture. The plates are incubated at 37° C. overnight in a humidified incubator. The following morning, the plates are read using a Spectrophotometer at 600 nm wavelength. […] The antibacterial activity (MIC) determined against representative Gram positive (S. aureus, E. faecalis) and Gram negative (E. coli, P. aurigenosa, K. pneumoniae and A. baumannii) pathogen were reported Table 1.
# S. aureus ATCC 29213 = experiment: Minimum Inhibitory Concentration (MIC) in LB media; assay type: cell-based, Staphylococcus aureus; conditions: for MIC: Staphylococcus aureus, ATCC29213, LB Media; for Minimum Inhibitory Concentration S. aureus ATCC 29213: LB Media
# Text: as §1, §2, §3
# K. pneumoniae ATCC 13883 = experiment: Minimum Inhibitory Concentration (MIC) in LB media; assay type: cell-based, Klebsiella pneumoniae; conditions: for MIC: Klebsiella pneumoniae, ATCC13883, LB Media
# Text: as §1, §2, §3
# E. coli topoisomerase IV = E. coli topoisomerase IV (Escherichia coli, UniProt P0AFI2+P20083); experiment: biochemical; conditions: decatenation assay; read-out: E. coli Topo IV IC50
# P. aurigenosa ATCC 27853 = experiment: Minimum Inhibitory Concentration (MIC) in LB media; assay type: cell-based, Pseudomonas aurigenosa; conditions: for MIC: Pseudomonas, ATCC27853, LB Media
# Text: as §1, §2, §3
# E. coli ATCC 25922 = experiment: Minimum Inhibitory Concentration (MIC) in LB media; assay type: cell-based, Escherichia coli; conditions: for MIC: Escherichia coli, ATCC25922, LB Media
# Text: as §1, §2, §3
# A. baumannii ATCC 19606 = experiment: Minimum Inhibitory Concentration (MIC) in LB media; assay type: cell-based, Acinetobacter baumannii; conditions: for MIC: Acinetobacter baumannii, ATCC19606, LB Media; for Minimum Inhibitory Concentration A. baumannii ATCC 19606: LB Media
# Text: as §1, §2, §3
# [1] = test system: P. aurigenosa (Pae) clinical strains; experiment: MIC50 and MIC90 studies using clinical strains (CLSI guidelines); assay type: cell-based
# [2] = test system: K. pneumoniae (Kpn) clinical strains; experiment: as above; assay type: cell-based
# E. coli clinical strains = experiment: as above; assay type: cell-based
# [3] = test system: A. baumannii (Aba) clinical strains; experiment: as above; assay type: cell-based
# [4] = Klebsiella pneumoniae, Kpn, 211 strains
# [5] = Escherichia coli, E. coli, 201 strains
# [6] = Acinetobacter baumannii, Aba, 169 strains
# E. coli DNA gyrase, sequence (P0AES4 whole entry, one chain of several): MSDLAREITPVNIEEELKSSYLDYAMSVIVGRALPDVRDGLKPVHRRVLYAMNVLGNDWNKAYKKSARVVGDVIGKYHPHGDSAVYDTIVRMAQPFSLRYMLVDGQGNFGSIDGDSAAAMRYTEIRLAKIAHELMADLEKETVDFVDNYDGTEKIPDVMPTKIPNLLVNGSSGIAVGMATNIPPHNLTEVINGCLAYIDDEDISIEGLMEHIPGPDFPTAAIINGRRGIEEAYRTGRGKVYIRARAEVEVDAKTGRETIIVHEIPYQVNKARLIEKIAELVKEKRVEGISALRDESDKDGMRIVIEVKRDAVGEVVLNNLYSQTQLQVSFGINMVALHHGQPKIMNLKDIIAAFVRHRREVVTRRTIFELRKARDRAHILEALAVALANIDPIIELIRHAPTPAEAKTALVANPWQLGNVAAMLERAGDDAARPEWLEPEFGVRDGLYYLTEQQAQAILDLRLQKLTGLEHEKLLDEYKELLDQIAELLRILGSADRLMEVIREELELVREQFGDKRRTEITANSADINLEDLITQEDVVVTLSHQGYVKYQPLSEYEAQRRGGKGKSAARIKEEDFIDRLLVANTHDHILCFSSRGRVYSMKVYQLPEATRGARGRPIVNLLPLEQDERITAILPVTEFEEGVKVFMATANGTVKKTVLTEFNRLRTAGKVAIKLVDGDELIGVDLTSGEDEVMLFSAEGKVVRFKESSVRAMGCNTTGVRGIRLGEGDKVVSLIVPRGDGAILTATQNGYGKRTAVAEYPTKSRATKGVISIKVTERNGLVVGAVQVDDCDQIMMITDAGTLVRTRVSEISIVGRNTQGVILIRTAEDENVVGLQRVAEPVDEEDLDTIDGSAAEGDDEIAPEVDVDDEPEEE
# E. coli topoisomerase IV, sequence (P0AFI2 whole entry): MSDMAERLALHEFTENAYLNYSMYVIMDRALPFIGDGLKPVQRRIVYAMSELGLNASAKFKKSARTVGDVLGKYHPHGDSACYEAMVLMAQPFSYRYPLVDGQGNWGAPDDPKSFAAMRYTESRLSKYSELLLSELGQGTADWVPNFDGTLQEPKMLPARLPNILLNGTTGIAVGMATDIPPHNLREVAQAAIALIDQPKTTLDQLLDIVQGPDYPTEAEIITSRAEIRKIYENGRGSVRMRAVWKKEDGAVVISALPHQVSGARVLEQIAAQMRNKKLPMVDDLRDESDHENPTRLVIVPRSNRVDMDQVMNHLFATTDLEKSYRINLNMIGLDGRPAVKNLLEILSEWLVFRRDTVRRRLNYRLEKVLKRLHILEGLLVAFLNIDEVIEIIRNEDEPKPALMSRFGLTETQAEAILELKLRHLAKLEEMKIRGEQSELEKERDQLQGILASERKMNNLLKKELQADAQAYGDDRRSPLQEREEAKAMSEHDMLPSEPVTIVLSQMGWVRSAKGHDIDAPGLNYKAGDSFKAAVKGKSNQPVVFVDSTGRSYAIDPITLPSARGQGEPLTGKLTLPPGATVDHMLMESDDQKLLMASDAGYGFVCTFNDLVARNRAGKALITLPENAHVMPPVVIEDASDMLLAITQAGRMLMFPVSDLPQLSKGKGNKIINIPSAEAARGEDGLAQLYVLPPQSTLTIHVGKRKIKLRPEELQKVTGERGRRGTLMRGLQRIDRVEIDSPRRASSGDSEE
# E. coli topoisomerase IV, sequence (P20083 whole entry): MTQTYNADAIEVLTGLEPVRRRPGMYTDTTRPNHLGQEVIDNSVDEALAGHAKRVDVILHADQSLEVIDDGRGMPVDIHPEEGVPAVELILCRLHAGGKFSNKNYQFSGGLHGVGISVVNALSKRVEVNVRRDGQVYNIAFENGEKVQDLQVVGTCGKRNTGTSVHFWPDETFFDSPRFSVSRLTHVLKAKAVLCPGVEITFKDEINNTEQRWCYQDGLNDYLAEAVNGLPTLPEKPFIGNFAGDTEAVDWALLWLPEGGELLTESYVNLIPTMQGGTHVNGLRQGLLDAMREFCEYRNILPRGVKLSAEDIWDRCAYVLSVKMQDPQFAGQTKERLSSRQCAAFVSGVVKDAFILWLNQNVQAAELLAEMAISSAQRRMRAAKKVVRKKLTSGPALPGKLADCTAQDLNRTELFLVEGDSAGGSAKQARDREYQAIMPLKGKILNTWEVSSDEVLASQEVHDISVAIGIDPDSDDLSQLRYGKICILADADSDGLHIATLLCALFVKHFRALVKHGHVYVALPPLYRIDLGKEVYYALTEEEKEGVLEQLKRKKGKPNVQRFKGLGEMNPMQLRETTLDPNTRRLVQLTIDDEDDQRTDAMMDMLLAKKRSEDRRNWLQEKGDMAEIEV
Compound,IC50 (E. coli DNA gyrase) [nM],MIC (E. faecalis ATCC 29212) [µg/mL],MIC (S. aureus ATCC 29213) [µg/mL],MIC (K. pneumoniae ATCC 13883) [µg/mL],IC50 (E. coli topoisomerase IV) [nM],MIC (P. aurigenosa ATCC 27853) [µg/mL],MIC (E. coli ATCC 25922) [µg/mL],MIC (A. baumannii ATCC 19606) [µg/mL],other results
"CN1C(=O)Cc2ccc(F)c(CNCCCC3CN(c4ccc5c(n4)NC(=O)CO5)C(=O)O3)c21 (racemic) [Example 6, 6-(5-(3-(((6-fluoro-1-methyl-2-oxoindolin-7-yl)methyl)amino)propyl)-2-oxooxazolidin-3-yl)-2H-pyrido[3,2-b][1,4]oxazin-3(4H)-one]",56,0.5,0.13,0.5,459,1,0.25,0.25,–
"CN1C(=O)Cc2ccc(F)c(CCNCCC3CN(c4ccc5c(n4)NC(=O)CO5)C(=O)O3)c21 (racemic) [Example 11, 6-(5-(2-((2-(6-fluoro-1-methyl-2-oxoindolin-7-yl)ethyl)amino)ethyl)-2-oxooxazolidin-3-yl)-2H-pyrido[3,2-b][1,4]oxazin-3(4H)-one]",55,0.13,0.03,0.125,–,0.5,0.06,0.03,–
"CN1C(=O)Cc2ccc(F)c(CNCCCC3CN(c4ccc5c(n4)NC(=O)CO5)C(=O)O3)c21 (single isomer, unassigned) [Example 9, 6-(5-(3-(((6-fluoro-1-methyl-2-oxoindolin-7-yl)methyl)amino)propyl)-2-oxooxazolidin-3-yl)-2H-pyrido[3,2-b][1,4]oxazin-3(4H)-one]",89,0.5,–,0.5,–,2,0.25,–,Minimum Inhibitory Concentration S. aureus ATCC 29213 (S. aureus ATCC 29213): 0.13 µg/mL; Minimum Inhibitory Concentration A. baumannii ATCC 19606 (A. baumannii ATCC 19606): 0.125 µg/mL
"CN1C(=O)Cc2ccc(F)c(CNCCCC3CN(c4ccc5c(n4)NC(=O)CO5)C(=O)O3)c21 (single isomer, unassigned) [Example 10, 6-(5-(3-(((6-fluoro-1-methyl-2-oxoindolin-7-yl)methyl)amino)propyl)-2-oxooxazolidin-3-yl)-2H-pyrido[3,2-b][1,4]oxazin-3(4H)-one]",106,–,–,–,398,–,–,–,Minimum Inhibitory Concentration E. faecalis ATCC 29212 (E. faecalis ATCC 29212): 0.5 µg/mL; Minimum Inhibitory Concentration S. aureus ATCC 29213 (S. aureus ATCC 29213): 0.06 µg/mL; Minimum Inhibitory Concentration K. pneumoniae ATCC 13883 (K. pneumoniae ATCC 13883; LB Media): 0.25 µg/mL; Minimum Inhibitory Concentration P. aurigenosa ATCC 27853 (P. aurigenosa ATCC 27853; LB Media): 1 µg/mL; Minimum Inhibitory Concentration E. coli ATCC 25922 (E. coli ATCC 25922; LB Media): 0.125 µg/mL; Minimum Inhibitory Concentration A. baumannii ATCC 19606 (A. baumannii ATCC 19606): 0.06 µg/mL
"CN1C(=O)Cc2ccc(F)c(CNCCC3CN(c4ccc5c(n4)NC(=O)CO5)C(=O)O3)c21 (centres unmarked) [Example 2, 6-(5-(2-(((6-Fluoro-1-methyl-2-oxoindolin-7-yl)methyl)amino)ethyl)-2-oxooxazolidin-3-yl)-2H-pyrido[3,2-b][1,4]oxazin-3(4H)-on]",360,1.25,0.6,2.5,–,10,1.25,0.3,–
"CN1C(=O)C(C)(C)c2ccc(F)c(CNCCC3CN(c4ccc5c(n4)NC(=O)CO5)C(=O)O3)c21 (centres unmarked) [Example 4, 6-(5-(2-(((6-fluoro-1,3,3-trimethyl-2-oxoindolin-7-yl)methyl)amino)ethyl)-2-oxooxazolidin-3-yl)-2H-pyrido[3,2-b][1,4]oxazin-3(4H)-one]",14000,> 80,> 80,> 80,–,> 80,> 80,> 80,–
"CCN1C(=O)Cc2ccc(F)c(CNCCCC3CN(c4ccc5c(n4)NC(=O)CO5)C(=O)O3)c21 (centres unmarked) [Example 8, 6-(5-(3-(((1-Ethyl-6-fluoro-2-oxoindolin-7-yl)methyl)amino)propyl)-2-oxooxazolidin-3-yl)-2H-pyrido[3,2-b][1,4]oxazin-3(4H)-one]",54,0.15,0.07,0.3,362,2.5,0.15,0.15,–
"CN1C(=O)Cc2ccc(F)c(CNCCCC3CN(c4ccc5c(c4)NC(=O)CO5)C(=O)O3)c21 (centres unmarked) [Example 12, 6-(5-(3-(((6-fluoro-1-methyl-2-oxoindolin-7-yl)methyl)amino)propyl)-2-oxooxazolidin-3-yl)-2H-benzo[b][1,4]oxazin-3(4H)-one]",89,0.5,0.25,0.5,600,2,0.25,0.13,–
"CN1C(=O)Cc2ccc(F)c(C(O)CNCCC3CN(c4ccc5c(n4)NC(=O)CO5)C(=O)O3)c21 (centres unmarked) [Example 15, 6-(5-(2-((2-(6-fluoro-1-methyl-2-oxoindolin-7-yl)-2-hydroxyethyl)amino)ethyl)-2-oxooxazolidin-3-yl)-2H-pyrido[3,2-b][1,4]oxazin-3(4H)-one]",135,2,1,2,–,2,1,4,–
"C[C@@H](O)[C@H]1C(=O)N2C(C(=O)O)=C(S[C@@H]3CN[C@H](C(=O)N(C)C)C3)[C@H](C)[C@H]12 [Meropenem, reference compound]",–,–,–,–,–,–,–,–,"MIC ATCC27853 ([1]; Pae reference strain ATCC27853, unit inferred): 0.5 µg/mL; MIC50 ([1]; Pae, 215 strains): 2 µg/mL; MIC90 ([1]; Pae, 215 strains): 8 µg/mL; Minimum (MIC) ([1]; Pae, 215 strains, unit not given, in µg/mL): 0.03; MIC50 [2, 4]: 1 µg/mL; MIC90 [2, 4]: 16 µg/mL; MIC ATCC13883 ([2]; Kpn reference strain ATCC13883, unit inferred): 0.06 µg/mL; Minimum (MIC) ([2]; Kpn, 211 strains, unit inferred): 0.03 µg/mL; MIC ATCC25922 (E. coli clinical strains; E. coli reference strain ATCC25922, no unit in this row (MIC50/MIC90 rows: μg/ml)): 0.06 µg/mL; Minimum (MIC) (E. coli clinical strains; E. coli, 201 strains, unit inferred): 0.03 µg/mL; MIC50 (E. coli clinical strains; [5]): 0.06 µg/mL; MIC90 (E. coli clinical strains; [5]): 4 µg/mL; MIC ATCC19606 ([3]; Aba reference strain ATCC19606, unit inferred): 0.5 µg/mL; Minimum (MIC) ([3]; Aba, 169 strains, unit not given, in µg/mL): 0.03125; MIC50 [3, 6]: 8 µg/mL; MIC90 [3, 6]: 32 µg/mL"
